Square brackets hold non-standard residues; d marks the D form. Peptide text beside a SMILES is read from it. * marks the point of attachment. pNA = O=[N+]([O-])c1ccc(N*)cc1
Legend:
Plasminogen [1] = biological target: T1, Plasminogen (Homo sapiens, UniProt P00747); experiment: Inhibition of plasmin (unknown origin) using H-D-Val-Leu-Lys-pNA as substrate
[2] = biological target: Urokinase-type plasminogen activator (Homo sapiens, UniProt P00749); experiment: Inhibition of urokinase (unknown origin) using Pyr-Glu-Gly-Arg-pNA as substrate; settings: for inhibition: concentration not given here
Trypsin = Trypsin (Homo sapiens, UniProt P07477+P07478+P35030); experiment: Inhibition of trypsin (unknown origin) using H-D-Phe-Pip-Arg-pNA as substrate; assay type: protein assay
Plasminogen [3] = biological target: T1, Plasminogen; experiment: Inhibition of plasmin (unknown origin)
Plasminogen [4] = biological target: T1, Plasminogen; experiment: Inhibition of human plasmin assessed as inhibition of fibrinolysis in presence of fibrinogen
Plasminogen [5] = biological target: T1, Plasminogen; experiment: Inhibition of human plasmin assessed as inhibition of fibrinogenolysis in presence of fibrinogen
Plasminogen [6] = biological target: T1, Plasminogen; experiment: Inhibition of human plasmin assessed as inhibition of amidolysis in presence of fibrinogen
Plasminogen [7] = biological target: T1, Plasminogen; experiment: Inhibition of human plasmin

T1 sequence (P00747 97-580 limits assumed): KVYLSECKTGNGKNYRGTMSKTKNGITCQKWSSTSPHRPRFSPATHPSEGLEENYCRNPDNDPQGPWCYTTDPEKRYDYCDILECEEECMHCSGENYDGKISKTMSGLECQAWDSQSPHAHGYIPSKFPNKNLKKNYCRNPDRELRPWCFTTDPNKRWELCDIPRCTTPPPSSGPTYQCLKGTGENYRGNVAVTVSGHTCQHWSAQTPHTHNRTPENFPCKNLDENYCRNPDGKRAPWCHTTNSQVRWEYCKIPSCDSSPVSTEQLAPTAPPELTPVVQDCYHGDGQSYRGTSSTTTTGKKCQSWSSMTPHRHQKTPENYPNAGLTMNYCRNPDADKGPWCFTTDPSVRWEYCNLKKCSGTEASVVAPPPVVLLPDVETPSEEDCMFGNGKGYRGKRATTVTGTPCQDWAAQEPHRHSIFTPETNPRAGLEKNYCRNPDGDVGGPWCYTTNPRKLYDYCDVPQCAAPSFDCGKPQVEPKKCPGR
T1 sequence (P00747 581-810 limits assumed): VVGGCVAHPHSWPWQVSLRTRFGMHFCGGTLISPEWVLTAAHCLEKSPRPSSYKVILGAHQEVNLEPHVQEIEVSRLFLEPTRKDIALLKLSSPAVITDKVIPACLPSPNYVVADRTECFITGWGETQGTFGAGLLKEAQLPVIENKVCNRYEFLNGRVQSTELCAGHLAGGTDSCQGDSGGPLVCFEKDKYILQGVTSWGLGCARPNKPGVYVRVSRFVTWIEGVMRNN

Row | Structure (SMILES) | IC50 (Plasminogen [1]) [nM] | IC50 [2] [µM] | inhibition [2] [%] | IC50 (Trypsin) [µM] | IC50 (Plasminogen [3]) [µM] | IC50 (Plasminogen [4]) [nM] | IC50 (Plasminogen [5]) [µM] | Ki (Plasminogen [6]) [nM] | IC50 (Plasminogen [7]) [nM]
1 | CCCCCCCCNC(=O)[C@H](Cc1ccc(OCc2ccc(C(=O)OCC)cc2)cc1)NC(=O)[C@H]1CC[C@H](CN)CC1 | 490 | > 200 | 40 | 6.1 |  |  |  |  | 
2 | CCCCCCCCNC(=O)[C@H](Cc1ccc(OC(C)(C)C)cc1)NC(=O)[C@H]1CC[C@H](CN)CC1 | 17000 | > 100 | 17 | 0.38 |  |  |  |  | 
3 | CCCCCCCCNC(=O)[C@H](Cc1ccc(OCc2cccc(N)c2)cc1)NC(=O)[C@H]1CC[C@H](CN)CC1 | 860 | > 100 | 31 | 0.86 |  |  |  |  | 
4 | CCCCCCCCNC(=O)[C@H](Cc1ccc(OCc2ccc(C(F)(F)F)cc2)cc1)NC(=O)[C@H]1CC[C@H](CN)CC1 | 960 | > 100 | 6 | 6.9 |  |  |  |  | 
5 | CCCCCCCCNC(=O)[C@H](Cc1ccc(OCc2ccc(C(=O)O)cc2)cc1)NC(=O)[C@H]1CC[C@H](CN)CC1 | 2700 | > 100 | 22 | 4.7 |  |  |  |  | 
6 | CC[C@@H](C)[C@@H](N)C(=O)N[C@@H](Cc1ccc(OCc2ccncc2)cc1)C(=O)N[C@H](C#N)CCCCN |  |  |  |  | 11 |  |  |  | 
7 | CCCCCCCCNC(=O)[C@H](Cc1ccc(OCc2ccncc2)cc1)NC(=O)[C@H]1CC[C@H](CN)CC1 | 530 | 5.3 |  | 1.1 |  |  |  |  | 
8 | CCCCCCCCNC(=O)[C@H](Cc1ccc(OCc2ccc3ccccc3n2)cc1)NC(=O)[C@H]1CC[C@H](CN)CC1 | 220 | 77 |  | 1.4 |  |  |  |  | 
9 | CC[C@@H](C)[C@@H](N)C(=O)N[C@@H](Cc1ccc(OCc2cccc(OCc3ccncc3)c2)cc1)C(=O)N[C@H](C#N)CCCCN |  |  |  |  | 7.7 |  |  |  | 
10 | CCCCCCCCNC(=O)[C@H](Cc1ccc(O)cc1)NC(=O)[C@H]1CC[C@H](CN)CC1 | 67000 | 62 |  | 1 |  |  |  |  | 
11 | CCCCCCCCNC(=O)[C@H](Cc1ccc(OCc2cccc(C(=O)O)c2)cc1)NC(=O)[C@H]1CC[C@H](CN)CC1 | 530 | > 50 | 13 | 2 |  |  |  |  | 
12 | CC(C)C[C@H](NC(=O)[C@H](N)C(C)C)C(=O)N[C@@H](CCCCN)C(=O)Nc1ccc([N+](=O)[O-])cc1 (H-[dV]-Leu-Lys-pNA) |  |  |  |  |  |  |  |  | 530

The remaining lines, values ahead:

Row | IC50 (Plasminogen [1]) [nM] | IC50 [2] [µM] | inhibition [2] [%] | IC50 (Trypsin) [µM] | IC50 (Plasminogen [3]) [µM] | IC50 (Plasminogen [4]) [nM] | IC50 (Plasminogen [5]) [µM] | Ki (Plasminogen [6]) [nM] | IC50 (Plasminogen [7]) [nM] | Structure (SMILES)
13 | 680 | > 100 | 13 | 2.1 |  |  |  |  |  | CCCCCCCCNC(=O)[C@H](Cc1ccc(OCc2cccc([N+](=O)[O-])c2)cc1)NC(=O)[C@H]1CC[C@H](CN)CC1
14 | 510 | > 50 | 7 | 2.7 |  |  |  |  |  | CCCCCCCCNC(=O)[C@H](Cc1ccc(OCc2cccc(C(=O)OCC)c2)cc1)NC(=O)[C@H]1CC[C@H](CN)CC1
15 | 750 | > 100 | 41 | 6.7 |  |  |  |  |  | CCCCCCCCNC(=O)[C@H](Cc1ccc(OCc2cccc(-c3ccccc3)c2)cc1)NC(=O)[C@H]1CC[C@H](CN)CC1
16 | 340 | > 100 | 24 | 0.93 |  |  |  |  |  | CCCCCCCCNC(=O)[C@H](Cc1ccc(OCc2cccc3cccnc23)cc1)NC(=O)[C@H]1CC[C@H](CN)CC1
17 | 1700 | > 100 | 0 | 2.2 |  |  |  |  |  | CCCCCCCCNC(=O)[C@H](Cc1ccc(OCc2ccccc2)cc1)NC(=O)[C@H]1CC[C@H](CN)CC1
18 | 710 | > 100 | 23 | 4.4 |  |  |  |  |  | CCCCCCCCNC(=O)[C@H](Cc1ccc(OCc2ccc3ccccc3c2)cc1)NC(=O)[C@H]1CC[C@H](CN)CC1
19 |  |  |  |  |  | 2900 | 4.5 | 2900 |  | CCCCCCNC(=O)[C@H](Cc1ccc(OCc2cccnc2)cc1)NC(=O)c1ccc(CN)cc1
20 | 970 | > 50 | 36 | 1.3 |  |  |  |  |  | CCCCCCCCNC(=O)[C@H](Cc1ccc(OCc2cccc(OCc3ccncc3)c2)cc1)NC(=O)[C@H]1CC[C@H](CN)CC1
21 | 3000 | > 100 | 5 | 4.6 |  |  |  |  |  | CCCCCCCCNC(=O)[C@H](Cc1ccc(OCc2ccccc2C(F)(F)F)cc1)NC(=O)[C@H]1CC[C@H](CN)CC1
22 | 1500 | > 200 | 23 | 4.8 |  |  |  |  |  | CCCCCCCCNC(=O)[C@H](Cc1ccc(OCc2ccccc2C(=O)OC)cc1)NC(=O)[C@H]1CC[C@H](CN)CC1
23 | 600 | > 100 | 12 | 2.5 |  |  |  |  |  | CCCCCCCCNC(=O)[C@H](Cc1ccc(OCc2cccc(C(F)(F)F)c2)cc1)NC(=O)[C@H]1CC[C@H](CN)CC1
24 | 1600 | > 100 | 10 | 2.7 |  |  |  |  |  | CCCCCCCCNC(=O)[C@H](Cc1ccc(OCc2cccc3ccccc23)cc1)NC(=O)[C@H]1CC[C@H](CN)CC1

— ChEMBL document CHEMBL3751846, “Active site-directed plasmin inhibitors: Extension on the P2 residue” (Bioorg Med Chem, 2016)
